IC50 data for 19 molecules are collected here from PubChem BioAssay AID651581 (Sanford-Burnham Center for Chemical Genomics, 2012).

Activity calls are given as the source filed them. How the calls were made is not given here.

Assay [1] addresses Hypoxia-inducible factor 1-alpha (Homo sapiens) (UniProt Q16665). The experiment in a line: HIF-2a and HIF-1a reporter inhibition panel, dose response, selectivity assay for HIF-2a inhibitor project, cell-based, luminescence (AID 651581). The conditions noted are these: HIF-1a.
Assay [2] addresses Endothelial PAS domain-containing protein 1 (Homo sapiens) (UniProt Q99814). Described as above.

Sequence of Hypoxia-inducible factor 1-alpha (Homo sapiens) (Q16665 whole entry, looked up, the tested form may be a part): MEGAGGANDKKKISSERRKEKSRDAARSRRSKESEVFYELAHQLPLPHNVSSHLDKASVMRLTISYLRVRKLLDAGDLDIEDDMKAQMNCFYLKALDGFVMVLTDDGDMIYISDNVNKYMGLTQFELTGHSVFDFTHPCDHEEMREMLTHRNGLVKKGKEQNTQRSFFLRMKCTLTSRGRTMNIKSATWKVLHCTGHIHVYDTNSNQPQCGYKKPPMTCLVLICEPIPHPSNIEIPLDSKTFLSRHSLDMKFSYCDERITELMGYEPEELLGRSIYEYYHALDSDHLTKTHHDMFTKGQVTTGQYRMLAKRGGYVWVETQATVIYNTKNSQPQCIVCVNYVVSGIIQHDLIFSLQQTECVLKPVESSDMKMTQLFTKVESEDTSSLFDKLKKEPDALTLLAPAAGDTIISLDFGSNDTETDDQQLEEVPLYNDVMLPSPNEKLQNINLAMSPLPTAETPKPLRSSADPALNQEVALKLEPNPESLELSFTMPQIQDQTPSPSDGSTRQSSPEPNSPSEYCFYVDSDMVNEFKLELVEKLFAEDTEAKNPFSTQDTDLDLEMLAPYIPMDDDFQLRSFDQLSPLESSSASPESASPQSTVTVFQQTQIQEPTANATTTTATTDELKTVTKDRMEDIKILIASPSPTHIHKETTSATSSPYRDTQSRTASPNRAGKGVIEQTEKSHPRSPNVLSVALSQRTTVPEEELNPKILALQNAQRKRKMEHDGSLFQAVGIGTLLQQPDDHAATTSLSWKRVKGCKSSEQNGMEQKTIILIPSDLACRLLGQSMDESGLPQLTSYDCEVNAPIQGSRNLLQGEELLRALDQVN

By IC50 is commonly meant the point on the concentration scale where inhibition reaches its midpoint. `CCOC(=O)Cc1csc(NC(=S)NC(=O)c2ccc([N+](=O)[O-])cc2)n1`: the IC50 is 51 µM in assay [1] (mean of runs); 55.3 µM in assay [1] (run 1); 46.8 µM in assay [1] (run 2); 35.8 µM in assay [2] (HIF-2a PANC, run 1); 34.5 µM in assay [2] (HIF-2a PANC, run 2); 5.93 µM in assay [2] (HIF-2a, mean of runs). Besides, the IC50 in assay [2] (HIF-2a, run 1) was determined as 5.83 µM; in assay [2] (HIF-2a, run 2), 6.03 µM. In assay [2] (HIF-2a PANC, mean of runs), the IC50 entry is “inactive”.

Consider `O=C(O)COc1ccc(-c2nccc(-c3ccccn3)n2)cc1`, for which the IC50 result in assay [1] (mean of runs) was “inactive”. The IC50 in assay [1] (run 1) was 0.397 µM; in assay [1] (run 2) it was 0.777 µM; in assay [2] (HIF-2a PANC, mean of runs) it was 1.14 µM; in assay [2] (HIF-2a PANC, run 1), 1.36 µM; in assay [2] (HIF-2a PANC, run 2), 0.912 µM; in assay [2] (HIF-2a, mean of runs), 0.913 µM. The IC50 in assay [2] (HIF-2a, run 1) amounted to 0.806 µM; in assay [2] (HIF-2a, run 2), 1.02 µM.

For `O=C(O)c1cccc(-c2nc3ccccc3[nH]2)c1`, the IC50 in assay [1] (run 1) is above 99 µM; in assay [1] (run 2), above 99 µM; in assay [2] (HIF-2a PANC, mean of runs), > 99 µM (inactive); in assay [2] (HIF-2a PANC, run 1), above 99 µM; in assay [2] (HIF-2a PANC, run 2), above 99 µM; in assay [2] (HIF-2a, run 1) it was 14.5 µM. This molecule also registered a concentration for half-maximal inhibition (IC50) in assay [2] (HIF-2a, run 2) of 15.5 µM. Further, in assay [2] (HIF-2a, mean of runs), the IC50 result is “inactive”.

Consider `O=C(Nc1ccc(NC(=S)NC(=O)c2ccco2)cc1)c1ccc(Br)cc1`, for which the half-inhibitory concentration (IC50) in assay [1] (run 1) is 0.639 µM; in assay [1] (run 2), above 99 µM; in assay [2] (HIF-2a PANC, mean of runs), > 99 µM (inactive); in assay [2] (HIF-2a PANC, run 1), above 99 µM; in assay [2] (HIF-2a PANC, run 2) it was above 99 µM; in assay [2] (HIF-2a, mean of runs), 1.02 µM. Further, the IC50 in assay [2] (HIF-2a, run 1) was determined as 1.18 µM; in assay [2] (HIF-2a, run 2), 0.871 µM.

On to `CCN(CC)S(=O)(=O)c1ccc(NC(=O)c2cccnc2Cl)c(NC(=O)c2cccnc2Cl)c1`, for which, in assay [1] (mean of runs), the IC50 entry is “inactive”. Moreover, the IC50 is 8.13 µM in assay [1] (run 1); 16.9 µM in assay [1] (run 2); 9.99 µM in assay [2] (HIF-2a PANC, mean of runs); 12.9 µM in assay [2] (HIF-2a PANC, run 1); 7.07 µM in assay [2] (HIF-2a PANC, run 2); 10 µM in assay [2] (HIF-2a, mean of runs). Also, the IC50 in assay [2] (HIF-2a, run 1) was 9.42 µM; in assay [2] (HIF-2a, run 2) it was 10.6 µM.

In the case of `O=C(O)COc1ccc2oc3ccccc3c2c1`, the IC50 is 43.4 µM in assay [1] (mean of runs); 27.8 µM in assay [1] (run 1); 59 µM in assay [1] (run 2); 75.3 µM in assay [2] (HIF-2a PANC, run 1); 20.5 µM in assay [2] (HIF-2a PANC, run 2); 13.1 µM in assay [2] (HIF-2a, run 1). In assay [2] (HIF-2a, run 2), this molecule showed an IC50 of 12.7 µM. For the same molecule, the IC50 result in assay [2] (HIF-2a PANC, mean of runs) was “inactive”; in assay [2] (HIF-2a, mean of runs) it was “inactive”.

Consider `CC(=O)/C=C1/C(=O)Nc2ccccc21`, for which the IC50 result in assay [1] (mean of runs) is “inactive”; in assay [2] (HIF-2a, mean of runs), “inactive”. For the same molecule, the IC50 is 32.6 µM in assay [1] (run 1); 26.2 µM in assay [1] (run 2); > 99 µM (inactive) in assay [2] (HIF-2a PANC, mean of runs); above 99 µM in assay [2] (HIF-2a PANC, run 1); above 99 µM in assay [2] (HIF-2a PANC, run 2); 13.9 µM in assay [2] (HIF-2a, run 1). In assay [2] (HIF-2a, run 2), this molecule had a half-maximal inhibitory concentration (IC50) of 14.2 µM.

For the molecule `CCOC(=O)C1CCN(Cc2cc(=O)oc3c(C)c(C)ccc23)CC1`, the half-maximal inhibitory concentration (IC50) in assay [1] (mean of runs) was 28.8 µM; in assay [1] (run 1), 31.7 µM; in assay [1] (run 2), 25.9 µM; in assay [2] (HIF-2a PANC, mean of runs), 14.2 µM; in assay [2] (HIF-2a PANC, run 1), 19.7 µM; in assay [2] (HIF-2a PANC, run 2) it was 8.77 µM. Besides, the IC50 was 7.52 µM in assay [2] (HIF-2a, mean of runs); 7.96 µM in assay [2] (HIF-2a, run 1); 7.07 µM in assay [2] (HIF-2a, run 2).

Regarding `CC(=O)Nc1ccc(NC(=O)c2oc3cc(C)c(C)cc3c2C)cc1`, the IC50 entry in assay [1] (mean of runs) was “inactive”. The half-maximal inhibitory concentration (IC50) in assay [1] (run 1) is 2.91 µM; in assay [1] (run 2) it was 1.65 µM; in assay [2] (HIF-2a PANC, run 1) it was above 99 µM; in assay [2] (HIF-2a PANC, run 2), 16.5 µM; in assay [2] (HIF-2a, mean of runs), 1.64 µM; in assay [2] (HIF-2a, run 1), 1.62 µM. Besides, the IC50 in assay [2] (HIF-2a, run 2) came to 1.67 µM.

On to `CCOC(=O)c1c(C)nn(-c2ccc(NC(=O)c3c(C)noc3C)cc2)c1C`, for which the IC50 entry in assay [1] (mean of runs) was “inactive”; in assay [2] (HIF-2a PANC, mean of runs), “inactive”. Also, the IC50 in assay [1] (run 1) is 10.2 µM; in assay [1] (run 2) it was 11.8 µM; in assay [2] (HIF-2a PANC, run 1), 15.3 µM; in assay [2] (HIF-2a PANC, run 2) it was 13.2 µM; in assay [2] (HIF-2a, mean of runs), 4.26 µM; in assay [2] (HIF-2a, run 1), 4.25 µM. Moreover, in assay [2] (HIF-2a, run 2), the IC50 is 4.26 µM.

Turning to `FC(F)(F)c1cnc(NNC(=S)Nc2ccccc2)c(Cl)c1`, the IC50 in assay [1] (mean of runs) was 28.9 µM; in assay [1] (run 1), 13.9 µM; in assay [1] (run 2) it was 44 µM; in assay [2] (HIF-2a PANC, mean of runs) it was 2.3 µM; in assay [2] (HIF-2a PANC, run 1) it was 1.23 µM; in assay [2] (HIF-2a PANC, run 2), 3.36 µM. For the same molecule, the IC50 was 7.78 µM in assay [2] (HIF-2a, mean of runs); 8.41 µM in assay [2] (HIF-2a, run 1); 7.15 µM in assay [2] (HIF-2a, run 2).

As to `O=C(O)c1ccc2nc(-c3ccccc3)sc2c1`, the IC50 entry in assay [1] (mean of runs) was “inactive”. For the same molecule, the IC50 is 26.6 µM in assay [1] (run 1); 22.9 µM in assay [1] (run 2); 11.4 µM in assay [2] (HIF-2a PANC, mean of runs); 12.7 µM in assay [2] (HIF-2a PANC, run 1); 10.2 µM in assay [2] (HIF-2a PANC, run 2); below 30 µM in assay [2] (HIF-2a, run 1). The molecule also registered an IC50 in assay [2] (HIF-2a, run 2) above 99 µM.

For the molecule `O=C(O)c1cc(N/N=C/c2ccc3c(c2)OCCO3)ccc1Cl`, the IC50 in assay [1] (run 1) is 45.8 µM; in assay [1] (run 2), above 99 µM; in assay [2] (HIF-2a PANC, mean of runs), > 99 µM (inactive); in assay [2] (HIF-2a PANC, run 1), above 99 µM; in assay [2] (HIF-2a PANC, run 2) it was above 99 µM; in assay [2] (HIF-2a, run 1) it was below 30 µM. The molecule also returned an IC50 in assay [2] (HIF-2a, run 2) of 5.03 µM.

With `CCOc1ccc2nc(SCc3ccc(CC(=O)O)cc3)c(C#N)cc2c1`, the IC50 in assay [1] (mean of runs) is 24.6 µM; in assay [1] (run 1) it was 35.4 µM; in assay [1] (run 2) it was 13.8 µM; in assay [2] (HIF-2a PANC, mean of runs), 7.1 µM; in assay [2] (HIF-2a PANC, run 1), 10.9 µM; in assay [2] (HIF-2a PANC, run 2), 3.27 µM. Moreover, the IC50 is 6.7 µM in assay [2] (HIF-2a, mean of runs); 5.75 µM in assay [2] (HIF-2a, run 1); 7.65 µM in assay [2] (HIF-2a, run 2).

In the case of `O=C(O)c1cccc(N/N=C/c2cccs2)c1`, the IC50 in assay [1] (run 1) was above 99 µM; in assay [1] (run 2), above 99 µM; in assay [2] (HIF-2a PANC, run 1), above 99 µM; in assay [2] (HIF-2a PANC, run 2) it was 45.8 µM; in assay [2] (HIF-2a, mean of runs) it was 5.74 µM; in assay [2] (HIF-2a, run 1), 5.56 µM. Moreover, in assay [2] (HIF-2a, run 2), the IC50 worked out at 5.91 µM.

For the molecule `Cc1cc(C)c(C)c(S(=O)(=O)ON2C(=O)c3ccccc3C2=O)c1C`, the IC50 in assay [1] (run 1) was above 99 µM; in assay [1] (run 2), above 99 µM; in assay [2] (HIF-2a PANC, run 1) it was 50.9 µM; in assay [2] (HIF-2a PANC, run 2), 21.9 µM; in assay [2] (HIF-2a, mean of runs), 8.77 µM; in assay [2] (HIF-2a, run 1), 8.96 µM. Besides, the IC50 in assay [2] (HIF-2a, run 2) was determined as 8.59 µM. Further, the IC50 entry in assay [2] (HIF-2a PANC, mean of runs) was “inactive”.

With `O=Cc1cn(Cc2cccc([N+](=O)[O-])c2)c2ccccc12`, the IC50 in assay [1] (run 1) was above 99 µM; in assay [1] (run 2) it was above 99 µM; in assay [2] (HIF-2a PANC, mean of runs) it was > 99 µM (inactive); in assay [2] (HIF-2a PANC, run 1), above 99 µM; in assay [2] (HIF-2a PANC, run 2), above 99 µM; in assay [2] (HIF-2a, mean of runs), 0.978 µM. Moreover, the IC50 in assay [2] (HIF-2a, run 1) stood at 0.982 µM; in assay [2] (HIF-2a, run 2) it was 0.975 µM.

For `Nc1ccc(-c2ncc(-c3ccccc3)o2)cc1`, the IC50 in assay [1] (mean of runs) was 26.7 µM; in assay [1] (run 1), 52.5 µM; in assay [1] (run 2), 0.851 µM; in assay [2] (HIF-2a PANC, mean of runs), 0.247 µM; in assay [2] (HIF-2a PANC, run 1) it was 0.202 µM; in assay [2] (HIF-2a PANC, run 2), 0.292 µM. Further, the IC50 in assay [2] (HIF-2a, mean of runs) was below 0.3 µM; in assay [2] (HIF-2a, run 1) it was below 0.3 µM; in assay [2] (HIF-2a, run 2) it was below 1 µM.

On to `Cc1ccc(S(=O)(=O)Nc2cccc3cccnc23)cc1`, for which the half-inhibitory concentration (IC50) in assay [1] (run 1) was above 99 µM; in assay [1] (run 2) it was above 99 µM; in assay [2] (HIF-2a PANC, mean of runs), > 99 µM (inactive); in assay [2] (HIF-2a PANC, run 1) it was above 99 µM; in assay [2] (HIF-2a PANC, run 2), above 99 µM; in assay [2] (HIF-2a, mean of runs), 1.12 µM. Moreover, the IC50 in assay [2] (HIF-2a, run 1) was determined as 1.15 µM; in assay [2] (HIF-2a, run 2), 1.09 µM.
